Results published in patent US9797883B2, “Re-trafficking of herg reverses long QT syndrome 2 phenotype in human iPS-derived cardiomyocytes” (Singapore Health Services Pte Ltd, priority 2013, dated 2017).
“Also recorded” adds a separate entry of the source.

Experiments:
LQTS2-EBs = experiment: Microelectrode array (MEA) extracellular field potential recordings, LQTS2; assay type: cell-based, human; details: for cFPD (repolarization duration): human LQTS2 CMs
Description: (§1) To characterize the electrophysiological properties of the hiPS-CMs, a microelectrode array (MEA) recording system (Multichannel Systems, Reutlingen, Germany) was used as described previously. Briefly, contracting areas were micro-dissected and plated on MEA plates, allowed to adjust for 72 hrs before recording. All clusters were monitored for their beating abilities (beats/min) under the microscope during the 72 hr period. Clusters that maintained relatively uniform beating rates were then subjected to drugs. The MEA system allows simultaneous recordings from 60 titanium nitride-coated gold electrodes (30 μm) at high spatial (200 μm) and temporal (15 kHz) resolutions. All stock drugs were diluted in medium (2 mL) to assess the effects on the electrophysiological properties. […]. MEA clip along with the beating clusters was maintained on 37° C. throughout the duration of experiments. Care was also taken that all buffers including the medium utilized during all experimentation were pre-warmed to 37° C. All tested drugs were procured from Sigma-Aldrich, MO, USA. All extracellular recordings were performed for 180 seconds at baseline and at 5 minutes after drug application at 37° C. Data were recorded using MC Rack software (Multichannel System) and the recordings were used to determine the local field potential duration (FPD). FPD measurements were normalized (corrected FPD [cFPD]) to the beating rate of the contracting areas with the Bazzet correction formula: cFPD=FPD/√(RR interval).

control-EBs = experiment: Microelectrode array (MEA) extracellular field potential recordings, control; assay type: cell-based, human; details: 100 nM E-4031, control contracting EBs
Description: as §1, with “FPD measurements were normalized (corrected FPD [cFPD]) to the beating rate of the contracting areas with the Bazzet correction formula: cFPD=FPD/√(RR interval).” left out

[1] = atenolol 10 μM after isoproterenol, LQTS2-EBs

SMILES: O=C([O-])CCCc1ccccc1.[Na+] [4PBA, sodium 4-phenylbutyrate]
- cFPD (repolarization duration) (LQTS2-EBs; sodium 4-phenylbutyrate 400 μM): shortening the cFPD
- cFPD (repolarization duration) (LQTS2-EBs; sodium 4-phenylbutyrate 400 μM, listed as 4BPA): shortening of repolarization duration

SMILES: Cc1cccc(CCN2CCC(C(=O)c3ccc(NS(C)(=O)=O)cc3)CC2)n1 [E-4031]
- beating rate-corrected field potential duration (cFPD) (LQTS2-EBs; 100 nM E-4031, LQTS2 contracting EBs): increased cFPDs significantly
- beating rate-corrected field potential duration (cFPD) (control-EBs): increased cFPDs significantly

SMILES: Cc1ccc(NC(=O)C2(c3ccc4c(c3)OC(F)(F)O4)CC2)nc1-c1cccc(C(=O)O)c1 [VX-809, 3-[6-[[1-(2,2-difluoro-1,3-benzodioxol-5-yl)cyclopropanecarbonyl]amino]-3-methylpyridin-2-yl]benzoic acid]
- cFPD (repolarization duration) (LQTS2-EBs; VX-809 10 μM): shortening the cFPD; also recorded: shortening of repolarization duration

SMILES: CC(C)NCC(O)COc1ccc(CC(N)=O)cc1 (stereo not shown) [atenolol]
- beating frequencies (LQTS2-EBs; [1]): reduced the beating frequencies
- cFPD (LQTS2-EBs; [1]): restored cFPDs

SMILES: CC(C)NCC(O)c1ccc(O)c(O)c1 (stereo not shown) [isoproterenol]
- arrhythmogenic episodes (LQTS2-EBs; isoproterenol 1 uM, LQTS2-EBs): aggravating arrhythmogenic episodes
- beating frequencies (LQTS2-EBs; isoproterenol 1 uM, LQTS2-EBs): increased beating frequencies
- cFPD (LQTS2-EBs; isoproterenol 1 uM, LQTS2-EBs, n=15, LQTS2-baseline 0.657±0.07 s): 0.212 ± 0.02 s
